Experimental data as given in patent publication EP4610269A1, “UROKINASE PLASMINOGEN ACTIVATOR SURFACE RECEPTOR (UPAR) LIGANDS FOR DIAGNOSTIC OR THERAPEUTIC USE” (3B Pharmaceuticals GmbH, priority 2024, dated 2025).
Where a SMILES comes first, the peptide text is derived from it. Bridges are numbered along the chain shown (N, C = ends). [ ]: non-standard residue; d: D form. The star is where a group is joined. DOTA = O=C(O)CN1CCN(CC(=O)O)CCN(CC(=O)*)CCN(CC(=O)O)CC1; Pro(cis-4-F) = O=C(O)[C@@H]1C[C@H](F)CN1; Dopa = N[C@@H](Cc1ccc(O)c(O)c1)C(=O)O; mTyr = N[C@@H](Cc1cccc(O)c1)C(=O)O; Hyp = O=C(O)[C@@H]1C[C@@H](O)CN1; NMeF = CN[C@@H](Cc1ccccc1)C(=O)O; Gly(cBu) = N[C@H](C(=O)O)C1CCC1; NMeQ = CN[C@@H](CCC(N)=O)C(=O)O; Pentanoyl(4-Me) = CC(C)CCC(=O)*; Cit = NC(=O)NCCC[C@H](N)C(=O)O; Butoxycarbonyl = CCCCOC(=O)*; Pen = CC(C)(S)[C@H](N)C(=O)O; Nle = CCCC[C@H](N)C(=O)O; Orn = NCCC[C@H](N)C(=O)O; Nva = CCC[C@H](N)C(=O)O; Pentanoyl = CCCCC(=O)*

Columns and labels:
[1] = molecular target: T1, uPAR-expressing HEC-265 human endometrial adenocarcinoma cells (Homo sapiens, UniProt Q03405); test: Competitive FACS binding assay; details: pIC50 category of FACS binding
T1 construct: Cell surface uPAR-expressing HEC-265 human endometrial adenocarcinoma cells; host or cells: HEC-265
How it was run: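 Competitive displacement of a 10 nM biotinylated peptide from HEC-265 cells (1 h, 4 °C, PBS/1% BSA), detected via APC-streptavidin by flow cytometry. pIC50 from four-parameter logistic fit of median fluorescence versus concentration.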

human uPAR (uPAR-Fc) = molecular target: T2, human uPAR (uPAR-Fc) (Homo sapiens, UniProt Q03405); test: Surface plasmon resonance (SPR) assay, single cycle kinetics; format: binding; details: pKD category for uPAR SPR activity assay; uPAR-Fc on Protein A-Chip, single cycle kinetics, 25°C; read-out: pKD CAT (converted)
T2 construct: comprising amino acids Leu23-Arg303 according to UniProt entry Q03405.1; purchased R&D Systems 10378-UK-100
How it was run: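 uPAR-Fc (Leu23-Arg303 extracellular domains, human IgG1 Fc) captured on Protein A chip to ~2000 RU; single-cycle kinetics at 25°C in HEPES running buffer pH 7.4 with 0.1% DMSO. KD from double-referenced sensorgrams fitted to 1:1 Langmuir model, reported as pKD.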

T2 sequence (Q03405 23-303): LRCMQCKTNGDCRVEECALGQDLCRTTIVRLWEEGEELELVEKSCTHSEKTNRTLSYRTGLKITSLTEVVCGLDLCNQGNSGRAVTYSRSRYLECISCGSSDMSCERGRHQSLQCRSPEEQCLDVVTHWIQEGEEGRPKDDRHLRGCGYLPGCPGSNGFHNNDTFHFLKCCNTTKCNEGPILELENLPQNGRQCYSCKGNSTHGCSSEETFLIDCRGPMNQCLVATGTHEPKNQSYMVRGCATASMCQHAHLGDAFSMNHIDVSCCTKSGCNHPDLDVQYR
T1 sequence (Q03405 23-335): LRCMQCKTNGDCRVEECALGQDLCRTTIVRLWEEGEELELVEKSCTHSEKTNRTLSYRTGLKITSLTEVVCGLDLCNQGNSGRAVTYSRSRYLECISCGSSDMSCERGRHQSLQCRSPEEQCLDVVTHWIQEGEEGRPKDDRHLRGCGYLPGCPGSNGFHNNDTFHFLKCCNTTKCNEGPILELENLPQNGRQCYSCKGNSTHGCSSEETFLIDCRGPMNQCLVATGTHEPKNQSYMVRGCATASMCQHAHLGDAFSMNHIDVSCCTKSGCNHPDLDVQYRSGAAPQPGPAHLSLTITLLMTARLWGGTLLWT

IC50 [1] [nM]	Kd (human uPAR (uPAR-Fc)) [nM]	SMILES
≤ 10	< 1.58	CC[C@H](C)[C@@H]1NC(=O)[C@@H]2C[C@@H](O)CN2C(=O)[C@@H]2CCCN2C(=O)[C@H](Cc2ccccc2)NC(=O)[C@H](Cc2ccc(O)cc2)NC(=O)[C@H](CC(=O)O)NC(=O)[C@H](CCCNC(N)=O)NC(=O)[C@@H](NC(=O)CCC(C)C)CSSC[C@@H](C(N)=O)NC(=O)[C@H](CC(C)C)NC1=O [UPAR-410, iHex-[Cys-Cit-Asp-Tyr-Phe-Pro-Hyp-Ile-Leu-Cys]-NHz] ({Pentanoyl(4-Me)}-C[Cit]DYFP[Hyp]ILC-NH2; disulfide 1-10)
≤ 10	< 1.58	CCCCC(=O)N[C@H]1CSSC[C@@H](C(N)=O)NC(=O)[C@H](C2CCC2)NC(=O)[C@H]([C@@H](C)CC)NC(=O)[C@@H]2C[C@@H](O)CN2C(=O)[C@@H]2CCCN2C(=O)[C@H](Cc2ccccc2)NC(=O)[C@H](Cc2ccc(O)cc2)NC(=O)[C@H](CCC(N)=O)NC(=O)[C@H](CCCNC(=N)N)NC1=O [UPAR-411, Pent-[Cys-Arg-Gln-Tyr-Phe-Pro-Hyp-Ile-Cbg-Cys]-NH2] (Pentanoyl-CRQYFP[Hyp]I[Gly(cBu)]C-NH2; disulfide 1-10)
≥ 126	> 100	CCCC[C@@H]1NC(=O)[C@H](CCCNC(=N)N)NC(=O)[C@H](NC(=O)[C@H](CC(C)C)NC(=O)[C@H](CC(=O)O)NC(C)=O)CSSC[C@@H](C(N)=O)NC(=O)[C@H](CC(C)C)NC(=O)[C@H]([C@@H](C)CC)NC(=O)[C@H](C)NC(=O)[C@@H]2CCCN2C(=O)[C@H](Cc2ccccc2)NC(=O)[C@H](Cc2ccc(O)cc2)NC1=O [UPAR-412, Ac-Asp-Leu-[cys-Arg-Nle-Tyr-Phe-Pro-Ala-Ile-Leu-Cys]-NH2] (Ac-DL[dC]R[Nle]YFPAILC-NH2; disulfide 3-12)
≤ 10	< 1.58	CC[C@H](C)[C@@H]1NC(=O)[C@@H](C)NC(=O)[C@@H]2CCCN2C(=O)[C@H](Cc2ccccc2)NC(=O)[C@H](Cc2ccc(O)cc2)NC(=O)[C@H](CCCCNC(C)=O)NC(=O)[C@H](CCCNC(N)=O)NC(=O)[C@@H](NC(=O)CCC(C)C)CSSC[C@@H](C(N)=O)NC(=O)[C@H](CC(C)C)NC1=O [UPAR-413, iHex-[Cys-Cit-Lys(Ac)-Tyr-Phe-Pro-ala-Ile-Leu-Cys]-NH2] ({Pentanoyl(4-Me)}-C[Cit]K(Ac)YFP[dA]ILC-NH2; disulfide 1-10)
12.6 to 31.6	10 to 100	CC[C@H](C)[C@@H]1NC(=O)[C@H](CCCCNC(=O)CN2CCN(CC(=O)O)CCN(CC(=O)O)CCN(CC(=O)O)CC2)NC(=O)[C@@H]2CCCN2C(=O)[C@H](Cc2ccccc2)NC(=O)[C@H](Cc2ccc(O)cc2)NC(=O)[C@H](CCC(N)=O)NC(=O)[C@@H](C)NC(=O)[C@@H](NC(=O)CCC(C)C)CSSC[C@@H](C(N)=O)NC(=O)[C@H](CC(C)C)NC1=O [UPAR-414, iHex-[Cys-ala-Gln-Tyr-Phe-Pro-Lys(DOTA)-Ile-Leu-Cys]-NH2] ({Pentanoyl(4-Me)}-C[dA]QYFPK(DOTA)ILC-NH2; disulfide 1-10)

More lines, now with the values behind:

SMILES	IC50 [1] [nM]	Kd (human uPAR (uPAR-Fc)) [nM]
CCCCC(=O)N[C@@H]1C(=O)N[C@@H](CCCNC(N)=O)C(=O)N[C@@H](CCC(N)=O)C(=O)N[C@@H](Cc2ccc(O)cc2)C(=O)N[C@@H](Cc2ccccc2)C(=O)N2CCC[C@H]2C(=O)N2C[C@H](O)C[C@H]2C(=O)N[C@@H]([C@@H](C)CC)C(=O)N[C@@H](CCC)C(=O)N[C@H](C(N)=O)CSSC1(C)C [UPAR-397, Pent-[Pen-Cit-Gln-Tyr-Phe-Pro-Hyp-Ile-Nva-Cys]-NH2] (Pentanoyl-[Pen][Cit]QYFP[Hyp]I[Nva]C-NH2; disulfide 1-10)	≤ 10	< 1.58
CCCCC(=O)N[C@H]1CSSC[C@@H](C(N)=O)NC(=O)[C@H](CCC)NC(=O)[C@H]([C@@H](C)CC)NC(=O)[C@@H]2C[C@@H](O)CN2C(=O)[C@@H]2CCCN2C(=O)[C@H](Cc2ccccc2)N(C)C(=O)[C@H](Cc2ccc(O)cc2)NC(=O)[C@H](CCCCNC(=O)CN2CCN(CC(=O)O)CCN(CC(=O)O)CCN(CC(=O)O)CC2)NC(=O)[C@H](CCCNC(N)=O)NC1=O [UPAR-398, Pent-[Cys-Cit-Lys(DOTA)-Tyr-Nmf-Pro-Hyp-Ile-Nva-Cys]-NH2] (Pentanoyl-C[Cit]K(DOTA)Y[NMeF]P[Hyp]I[Nva]C-NH2; disulfide 1-10)	≥ 126	> 100
CCCCC(=O)N[C@H]1CSSC[C@@H](C(N)=O)NC(=O)[C@H](CCC)NC(=O)[C@H]([C@@H](C)CC)NC(=O)[C@@H]2C[C@@H](O)CN2C(=O)[C@@H]2CCCN2C(=O)[C@H](Cc2ccccc2)NC(=O)[C@H](Cc2ccc(O)c(O)c2)NC(=O)[C@H](CCCCNC(=O)CN2CCN(CC(=O)O)CCN(CC(=O)O)CCN(CC(=O)O)CC2)NC(=O)[C@H](CCCNC(N)=O)NC1=O [UPAR-399, Pent-[Cys-Cit-Lys(DOTA)-Dopa-Phe-Pro-Hyp-Ile-Nva-Cys]-NH2] (Pentanoyl-C[Cit]K(DOTA)[Dopa]FP[Hyp]I[Nva]C-NH2; disulfide 1-10)	≤ 10	< 1.58
CCCCC(=O)N[C@H]1CSSC[C@@H](C(N)=O)NC(=O)[C@H](CCC)NC(=O)[C@H]([C@@H](C)CC)NC(=O)[C@@H]2C[C@@H](O)CN2C(=O)[C@H](Cc2ccccc2)NC(=O)[C@H](Cc2ccccc2)NC(=O)[C@H](Cc2ccc(O)cc2)NC(=O)[C@H](CCC(N)=O)NC(=O)[C@H](CCCNC(=N)N)NC1=O [UPAR-400, Pent-[Cys-Arg-Gln-Tyr-Phe-Phe-Hyp-Ile-Nva-Cys]-NH2] (Pentanoyl-CRQYFF[Hyp]I[Nva]C-NH2; disulfide 1-10)	≤ 10	1.58 to 10
CCCCC(=O)N[C@H]1CSSC[C@@H](C(N)=O)NC(=O)[C@H](CCC)NC(=O)[C@H]([C@@H](C)CC)NC(=O)[C@@H]2C[C@@H](O)CN2C(=O)[C@@H]2CCCN2C(=O)[C@H](Cc2ccccc2)NC(=O)[C@H](Cc2c[nH]c3ccccc23)NC(=O)[C@H](CCC(N)=O)NC(=O)[C@H](CCCNC(=N)N)NC1=O [UPAR-401, Pent-[Cys-Arg-Gln-Trp-Phe-Pro-Hyp-Ile-Nva-Cys]-NH2] (Pentanoyl-CRQWFP[Hyp]I[Nva]C-NH2; disulfide 1-10)	≤ 10	< 1.58
CC[C@H](C)[C@@H]1NC(=O)[C@@H](C)NC(=O)[C@@H]2CCCN2C(=O)[C@H](Cc2ccccc2)NC(=O)[C@H](Cc2ccc(O)cc2)NC(=O)[C@H](CCC(N)=O)NC(=O)[C@H](CCCNC(N)=O)NC(=O)[C@@H](NC(=O)CCC(C)C)CSSC[C@@H](C(N)=O)NC(=O)[C@H](C)NC1=O [UPAR-402, iHex-[Cys-Cit-Gln-Tyr-Phe-Pro-ala-Ile-Ala-Cys]-NH2] ({Pentanoyl(4-Me)}-C[Cit]QYFP[dA]IAC-NH2; disulfide 1-10)	12.6 to 31.6	1.58 to 10
CC[C@H](C)[C@@H]1NC(=O)[C@H]([C@@H](C)CC)NC(=O)[C@@H](C)NC(=O)[C@@H]2CCCN2C(=O)[C@H](Cc2ccccc2)NC(=O)[C@H](Cc2ccc(O)cc2)NC(=O)[C@H](CCC(N)=O)NC(=O)[C@H](CCCNC(N)=O)NC(=O)[C@@H](NC(=O)CCC(C)C)CSSC[C@@H](C(N)=O)NC1=O [UPAR-405, iHex-[Cys-Cit-Gln-Tyr-Phe-Pro-ala-Ile-Ile-Cys]-NH2] ({Pentanoyl(4-Me)}-C[Cit]QYFP[dA]IIC-NH2; disulfide 1-10)	12.6 to 31.6	1.58 to 10
CCCC[C@@H]1NC(=O)[C@H](CCCNC(=N)N)NC(=O)[C@@H](NC(=O)[C@H](CC(C)C)NC(=O)[C@H](CC(=O)O)NC(C)=O)CSSC[C@@H](C(N)=O)NC(=O)[C@H](CC(C)C)NC(=O)[C@H]([C@@H](C)CC)NC(=O)[C@@H](C)NC(=O)[C@@H]2CCCN2C(=O)[C@H](Cc2ccccc2)NC(=O)[C@H](Cc2ccc(O)cc2)NC1=O [UPAR-406, Ac-Asp-Leu-[Cys-Arg-Nle-Tyr-Phe-Pro-ala-Ile-Leu-Cys]-NH2] (Ac-DLCR[Nle]YFP[dA]ILC-NH2; disulfide 3-12)	≤ 10	< 1.58
CC[C@H](C)[C@@H]1NC(=O)[C@@H](C)NC(=O)[C@@H]2CCCN2C(=O)[C@H](Cc2ccccc2)NC(=O)[C@H](Cc2ccc(O)cc2)NC(=O)[C@H](CCC(N)=O)N(C)C(=O)[C@H](CCCNC(N)=O)NC(=O)[C@@H](NC(=O)CCC(C)C)CSSC[C@@H](C(N)=O)NC(=O)[C@H](CC(C)C)NC1=O [UPAR-407, iHex-[Cys-Cit-Nmq-Tyr-Phe-Pro-ala-Ile-Leu-Cys]-NH2] ({Pentanoyl(4-Me)}-C[Cit][NMeQ]YFP[dA]ILC-NH2; disulfide 1-10)	≥ 126	10 to 100
CCCCC(=O)N[C@H]1CSSC[C@@H](C(N)=O)NC(=O)[C@H](CCC)NC(=O)[C@H]([C@@H](C)CC)NC(=O)[C@@H]2C[C@@H](O)CN2C(=O)[C@@H]2CCCN2C(=O)[C@H](Cc2ccccc2)NC(=O)[C@H](Cc2ccc(O)cc2)NC(=O)CNC(=O)[C@H](CCCNC(=N)N)NC1=O [UPAR-409, Pent-[Cys-Arg-Gly-Tyr-Phe-Pro-Hyp-Ile-Nva-Cys]-NH2] (Pentanoyl-CRGYFP[Hyp]I[Nva]C-NH2; disulfide 1-10)	≤ 10	< 1.58
CCCCOC(=O)N[C@H]1CSSC[C@@H](C(N)=O)NC(=O)[C@H](CCC)NC(=O)[C@H]([C@@H](C)CC)NC(=O)[C@@H]2C[C@@H](O)CN2C(=O)[C@@H]2C[C@H](F)CN2C(=O)[C@H](Cc2ccccc2)NC(=O)[C@H](Cc2cccc(O)c2)NC(=O)[C@H](CCCNC(=O)CN2CCN(CC(=O)O)CCN(CC(=O)O)CCN(CC(=O)O)CC2)NC(=O)[C@H]([C@@H](C)O)NC1=O [UPAR-415, Butoc-[Cys-Thr-Orn(DOTA)-My-Phe-4Cfp-Hyp-Ile-Nva-Cys]-NH2] (Butoxycarbonyl-CT[Orn](DOTA)[mTyr]F[Pro(cis-4-F)][Hyp]I[Nva]C-NH2; disulfide 1-10)	≤ 10	< 1.58
